Article PMC10261145, “Ceramide sensing by human SPT-ORMDL complex for establishing sphingolipid homeostasis” (Nature Communications, 2023)

T1: SPTLC1 (human, UniProt O15269 1-473)
T1 construct: serine palmitoyltransferase subunit SPTLC1, human, codon-optimized full-length cDNA; source: HEK293F, transiently co-transfected with the other subunits, purified as a complex (anti-Flag resin, SEC, GDN)
T1 sequence (looked up): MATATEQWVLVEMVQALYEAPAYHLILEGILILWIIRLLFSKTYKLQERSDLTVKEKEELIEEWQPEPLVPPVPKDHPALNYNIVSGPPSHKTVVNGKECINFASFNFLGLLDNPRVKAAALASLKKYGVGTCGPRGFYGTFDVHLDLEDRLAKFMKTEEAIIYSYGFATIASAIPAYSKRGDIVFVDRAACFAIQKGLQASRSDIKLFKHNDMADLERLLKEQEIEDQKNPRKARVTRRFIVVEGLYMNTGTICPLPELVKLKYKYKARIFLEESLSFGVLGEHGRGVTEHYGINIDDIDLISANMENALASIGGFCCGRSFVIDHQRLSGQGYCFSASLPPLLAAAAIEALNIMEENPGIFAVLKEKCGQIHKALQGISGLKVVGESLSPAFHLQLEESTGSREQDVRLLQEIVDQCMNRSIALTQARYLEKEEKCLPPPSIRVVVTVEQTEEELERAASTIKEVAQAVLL

T2: SPTLC2 (human, UniProt O15270 1-562)
T2 construct: serine palmitoyltransferase subunit SPTLC2, human, codon-optimized full-length cDNA; source: HEK293F, transiently co-transfected with the other subunits, purified as a complex (anti-Flag resin, SEC, GDN)
T2 sequence (looked up): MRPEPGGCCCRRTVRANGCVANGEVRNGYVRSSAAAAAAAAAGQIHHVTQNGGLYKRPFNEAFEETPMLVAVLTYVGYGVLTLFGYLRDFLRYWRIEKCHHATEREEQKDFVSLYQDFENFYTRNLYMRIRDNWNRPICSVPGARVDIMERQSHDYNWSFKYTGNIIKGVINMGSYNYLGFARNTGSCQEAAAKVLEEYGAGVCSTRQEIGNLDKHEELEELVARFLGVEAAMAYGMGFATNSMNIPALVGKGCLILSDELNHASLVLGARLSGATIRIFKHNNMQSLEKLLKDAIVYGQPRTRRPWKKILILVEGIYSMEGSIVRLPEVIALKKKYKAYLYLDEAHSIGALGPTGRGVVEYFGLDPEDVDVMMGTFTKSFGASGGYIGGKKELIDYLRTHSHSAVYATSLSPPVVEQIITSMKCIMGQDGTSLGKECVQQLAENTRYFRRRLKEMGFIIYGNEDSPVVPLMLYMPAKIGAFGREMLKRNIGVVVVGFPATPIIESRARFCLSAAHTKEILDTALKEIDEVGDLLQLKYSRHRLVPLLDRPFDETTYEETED

T3: serine palmitoyltransferase (SPT) complex (SPTLC1, SPTLC2, SPTssa) (human, UniProt O15269 1-473; O15270 1-562; Q969W0 1-71)
T3 construct: SPTLC1, human, codon-optimized full-length cDNA; SPTLC2, human, codon-optimized full-length cDNA; SPTssa, human, codon-optimized full-length cDNA; Also purified alone, without ORMDLs; also called WT SPT complex; source: HEK293F, transiently co-transfected, purified (anti-Flag resin, SEC, GDN); copies: + +
T3 sequence (looked up) 1: T1 sequence (looked up)
T3 sequence (looked up) 2: T2 sequence (looked up)
T3 sequence (looked up) 3: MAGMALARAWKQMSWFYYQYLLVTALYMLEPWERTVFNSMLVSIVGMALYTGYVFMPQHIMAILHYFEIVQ

B1: ORMDL3 (full-length, wild type) (natural protein, human, UniProt Q8N138 1-153, looked up)
chain: MNVGTAHSEVNPNTRVMNSRGIWLSYVLAIGLLHIVLLSIPFVSVPVVWTLTNLIHNMGMYIFLHTVKGTPFETPDQGKARLLTHWEQMDYGVQFTASRKFLTITPIVLYFLTSFYTKYDQIHFVLNTVSLMSVLIPKLPQLHGVRIFGINKY
notes: ORMDL3, human, codon-optimized full-length cDNA in pCAG (new ORMDL3-FL plasmid without the 14 extra nucleotides upstream of the ORF); cDNAs were cloned 'with an N-terminal Flag tag or without a tag'; also called ORMDL3-FL; WT ORMDL3; source: HEK293F, transiently co-transfected with the SPT subunits, purified as a complex (anti-Flag resin, SEC, GDN)
B2: SPTssa (natural protein, human, UniProt Q969W0 1-71, looked up)
chain: T3 sequence (looked up) 3
notes: serine palmitoyltransferase small subunit A (SPTssa), human, codon-optimized full-length cDNA; also called small SPT subunit; source: HEK293F, transiently co-transfected with the other subunits, purified as a complex (anti-Flag resin, SEC, GDN)

Columns and labels:
[1] = biological target: T4, SPT-ORMDL3 complex (Homo sapiens, UniProt O15269+O15270+Q8N138, Q8N138:N13A); assay: DTNB CoA-release assay; assay type: biochemical; details: 10 mM L-serine, 100 μM palmitoyl-CoA, 25 μM PLP, pH 7.5, 37 °C
T4 construct: full-length subunits (ORMDL3-FL) co-expressed in HEK293F; N-terminal Flag tag on a subunit; purified in GDN; dimer of heterotetrameric protomers; with Serine palmitoyltransferase small subunit A

[2] = biological target: T5, SPT-ORMDL2 complex (Homo sapiens, UniProt O15269+O15270+Q53FV1); assay: DTNB CoA-release assay; assay type: biochemical
T5 construct: full-length subunits co-expressed in HEK293F; N-terminal Flag tag on a subunit; purified in GDN; with Serine palmitoyltransferase small subunit A

[3] = biological target: T6, SPT-ORMDL3 complex (Homo sapiens, UniProt O15269+O15270+Q8N138, O15269:DEL40-41); assay: DTNB CoA-release assay; assay type: biochemical; details: 10 mM L-serine, 100 μM palmitoyl-CoA, 25 μM PLP, pH 7.5, 37 °C
T6 construct: full-length subunits (ORMDL3-FL) co-expressed in HEK293F; N-terminal Flag tag on a subunit; purified in GDN; dimer of heterotetrameric protomers; with Serine palmitoyltransferase small subunit A

[4] = biological target: T7, SPT-ORMDL3 complex (Homo sapiens, UniProt O15269+O15270+Q8N138, O15270:Y122A); assay: DTNB CoA-release assay; assay type: biochemical
T7 construct: full-length subunits (ORMDL3-FL) co-expressed in HEK293F; N-terminal Flag tag on a subunit; purified in GDN; dimer of heterotetrameric protomers; with Serine palmitoyltransferase small subunit A
Text: (§1) DTNB CoA-release assay on SPT-ORMDL3 complex | severely impaired for the former two variants, but largely sustained for the latter two variants

[5] = biological target: T8, SPT-ORMDL3 complex (Homo sapiens, UniProt O15269+O15270+Q8N138, Q8N138:H85A); assay: DTNB CoA-release assay; assay type: biochemical
T8 construct: full-length subunits (ORMDL3-FL) co-expressed in HEK293F; N-terminal Flag tag on a subunit; purified in GDN; dimer of heterotetrameric protomers; with Serine palmitoyltransferase small subunit A
Text: as §1

[6] = biological target: T9, SPT-ORMDL1 complex (Homo sapiens, UniProt O15269+O15270+Q9P0S3); assay: DTNB CoA-release assay; assay type: biochemical
T9 construct: full-length subunits co-expressed in HEK293F; N-terminal Flag tag on a subunit; purified in GDN; with Serine palmitoyltransferase small subunit A

[7] = biological target: T10, SPT-ORMDL3 complex (Homo sapiens, UniProt O15269+O15270+Q8N138); assay: DTNB CoA-release assay; cryo-EM structure; assay type: biochemical
T10 construct: full-length subunits (ORMDL3-FL) co-expressed in HEK293F; N-terminal Flag tag on a subunit; purified in GDN; dimer of heterotetrameric protomers; with Serine palmitoyltransferase small subunit A

[8] = biological target: T11, SPT-ORMDL3 complex (Homo sapiens, UniProt O15269+O15270+Q8N138, Q8N138:F63P); assay: DTNB CoA-release assay; assay type: biochemical; details: 10 mM L-serine, 100 μM palmitoyl-CoA, 25 μM PLP, pH 7.5, 37 °C
T11 construct: full-length subunits (ORMDL3-FL) co-expressed in HEK293F; N-terminal Flag tag on a subunit; purified in GDN; dimer of heterotetrameric protomers; with Serine palmitoyltransferase small subunit A

[9] = biological target: T12, SPT-ORMDL3 complex (Homo sapiens, UniProt O15269+O15270+Q8N138, O15269:DEL39-39); assay: DTNB CoA-release assay; assay type: biochemical; details: 10 mM L-serine, 100 μM palmitoyl-CoA, 25 μM PLP, pH 7.5, 37 °C
T12 construct: full-length subunits (ORMDL3-FL) co-expressed in HEK293F; N-terminal Flag tag on a subunit; purified in GDN; dimer of heterotetrameric protomers; with Serine palmitoyltransferase small subunit A

[10] = biological target: T10, SPT-ORMDL3 complex; assay: cryo-EM structure; LC-MS/MS of co-purified ceramides; assay type: binding; details: endogenous co-purified lipid; C24-ceramide fitted to a ceramide-like density, chain length not uniquely defined
[11] = biological target: T1, SPTLC1; assay: cryo-EM structure; single-particle cryo-EM of co-expressed and co-purified SPT-ORMDL3 complexes at ~18 mg/ml in 25 mM HEPES pH 7.5, 150 mM NaCl, 0.01% GDN; apo, or WT preincubated with 1 mM C6-ceramide on ice for 1 hr; details: both partners purified
[12] = biological target: T2, SPTLC2; assay: as above; details: both partners purified
[13] = biological target: T3, serine palmitoyltransferase (SPT) …; assay: as above; details: both partners purified
[14] = biological target: B1; assay: as above; details: both partners purified

T5 sequence (Q53FV1 whole entry, one chain of several): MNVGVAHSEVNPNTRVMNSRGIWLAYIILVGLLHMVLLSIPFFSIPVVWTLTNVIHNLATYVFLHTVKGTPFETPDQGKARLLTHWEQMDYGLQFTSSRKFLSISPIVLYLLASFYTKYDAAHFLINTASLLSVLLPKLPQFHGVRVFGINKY
T9 sequence (Q9P0S3 whole entry, one chain of several): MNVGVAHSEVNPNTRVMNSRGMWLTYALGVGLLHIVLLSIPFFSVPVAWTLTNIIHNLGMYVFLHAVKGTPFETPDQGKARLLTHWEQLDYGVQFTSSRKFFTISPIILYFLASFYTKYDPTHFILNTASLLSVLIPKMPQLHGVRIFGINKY
T11 sequence (Q8N138 whole entry F63P, one chain of several): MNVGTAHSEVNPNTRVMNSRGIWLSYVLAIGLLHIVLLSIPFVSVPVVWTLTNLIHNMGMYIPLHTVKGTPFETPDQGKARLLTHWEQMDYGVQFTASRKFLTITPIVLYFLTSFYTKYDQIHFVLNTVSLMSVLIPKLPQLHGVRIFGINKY
T4 sequence (Q8N138 whole entry N13A, one chain of several): as the sequence (Q8N138 whole entry F63P, one chain of several) above, with N13A, P63F counted along it
T12 sequence (O15269 with tags, fused parts or gaps DEL39-39, one chain of several): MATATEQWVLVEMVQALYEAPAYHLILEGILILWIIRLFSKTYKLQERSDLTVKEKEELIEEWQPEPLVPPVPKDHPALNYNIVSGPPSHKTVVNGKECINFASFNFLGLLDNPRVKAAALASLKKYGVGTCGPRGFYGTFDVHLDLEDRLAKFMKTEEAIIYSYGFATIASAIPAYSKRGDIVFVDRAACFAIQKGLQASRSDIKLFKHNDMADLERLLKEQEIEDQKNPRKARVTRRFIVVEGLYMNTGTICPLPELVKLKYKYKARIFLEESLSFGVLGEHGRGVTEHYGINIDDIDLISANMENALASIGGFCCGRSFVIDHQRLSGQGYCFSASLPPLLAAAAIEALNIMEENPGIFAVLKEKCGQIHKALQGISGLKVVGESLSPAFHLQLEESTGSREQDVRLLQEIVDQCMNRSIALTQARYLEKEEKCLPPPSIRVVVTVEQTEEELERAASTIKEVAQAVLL
T7 sequence (O15270 whole entry Y122A, one chain of several): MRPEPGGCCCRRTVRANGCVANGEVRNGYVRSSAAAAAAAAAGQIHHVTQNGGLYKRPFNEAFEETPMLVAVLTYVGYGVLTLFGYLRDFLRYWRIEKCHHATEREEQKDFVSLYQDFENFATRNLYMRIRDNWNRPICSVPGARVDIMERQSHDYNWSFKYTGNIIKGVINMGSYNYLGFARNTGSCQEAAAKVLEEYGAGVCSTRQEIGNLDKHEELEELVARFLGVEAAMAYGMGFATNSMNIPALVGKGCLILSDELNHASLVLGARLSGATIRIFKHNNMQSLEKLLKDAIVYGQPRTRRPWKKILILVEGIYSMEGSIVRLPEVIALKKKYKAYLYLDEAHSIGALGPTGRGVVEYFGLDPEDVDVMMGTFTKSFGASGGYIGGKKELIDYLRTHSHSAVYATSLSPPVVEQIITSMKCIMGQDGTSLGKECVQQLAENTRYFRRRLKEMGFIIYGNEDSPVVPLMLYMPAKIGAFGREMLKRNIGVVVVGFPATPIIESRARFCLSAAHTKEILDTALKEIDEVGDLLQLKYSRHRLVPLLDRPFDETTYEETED
T6 sequence (O15269 with tags, fused parts or gaps DEL40-41, one chain of several): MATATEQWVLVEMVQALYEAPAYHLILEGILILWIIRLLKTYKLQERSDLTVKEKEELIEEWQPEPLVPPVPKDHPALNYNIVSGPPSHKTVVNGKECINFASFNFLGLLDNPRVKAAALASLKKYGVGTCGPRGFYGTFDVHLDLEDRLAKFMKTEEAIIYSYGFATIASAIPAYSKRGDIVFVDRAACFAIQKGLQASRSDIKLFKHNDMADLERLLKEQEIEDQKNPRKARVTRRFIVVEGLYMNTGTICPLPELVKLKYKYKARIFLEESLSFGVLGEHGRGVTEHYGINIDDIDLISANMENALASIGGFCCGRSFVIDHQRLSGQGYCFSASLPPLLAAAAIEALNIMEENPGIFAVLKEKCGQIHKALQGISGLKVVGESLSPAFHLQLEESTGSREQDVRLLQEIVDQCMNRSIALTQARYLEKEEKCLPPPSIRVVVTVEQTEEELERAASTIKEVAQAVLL
T8 sequence (Q8N138 whole entry H85A, one chain of several): as the sequence (Q8N138 whole entry F63P, one chain of several) above, with P63F, H85A counted along it

`CCCCCCCCCCCCC/C=C/[C@@H](O)[C@H](CO)NC(=O)CCCCC` [C6-ceramide] was tested, and the inhibition curve [1] was “responses to C6-ceramide have been severely impaired for the former two variants”, the IC50 [2] was 980 nM and the inhibition curve [3] was “inhibition effect of C6-ceramide on all these SPTLC1 ALS variants was attenuated”. For the same molecule, the IC50 [4] was 6.98 µM, the IC50 [5] was 964 nM and the IC50 [6] was 4.07 µM. For the same molecule, the IC50 [7] was 2200 nM, the inhibition curve [8] was “responses to C6-ceramide have been severely impaired for the former two variants” and the inhibition curve [9] was “inhibition effect of C6-ceramide on all these SPTLC1 ALS variants was attenuated”.

With `CCCCCCCCCCCCC/C=C/[C@@H](O)[C@H](CO)NC(=O)CCCCCCCCCCCCCCCCCCCCCCC` [C24-ceramide] the “cryo-EM structure; LC-MS/MS of co-purified ceramides” value [10] was “ceramide-like density in the apo SPT-ORMDL3 structure, which could be better fitted with C24-ceramide”.

B1: binds [11]; binds [12]; binds [13].

B2: binds [14].
